Source: PubChem BioAssay AID608 (Sanford-Burnham Center for Chemical Genomics, 2007)
Calls of active or inactive are those of the source. The rule behind the calls is not given here.

Each molecule was assayed against Peptidyl-prolyl cis-trans isomerase FKBP1A (Homo sapiens) (UniProt P62942) (assay: FKBP12 binders, biophysical, NMR detection (AID 608)). Conditions: NMR binding, purified FKBP12.
Peptidyl-prolyl cis-trans isomerase FKBP1A (Homo sapiens), sequence (P62942 whole entry, looked up): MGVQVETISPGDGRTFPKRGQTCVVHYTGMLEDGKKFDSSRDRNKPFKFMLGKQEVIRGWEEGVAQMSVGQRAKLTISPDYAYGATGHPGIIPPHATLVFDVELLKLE
For `NC(=O)c1ccc(C(N)=O)cc1`, the Kd was > 4 mM (inactive). For `O=C1C2CCCCC2C(=O)N1c1nccs1` (centres undefined), the Kd was > 4 mM (inactive). For `Cc1ccc(Cl)cc1NS(=O)(=O)N1CCOCC1`, the Kd was > 4 mM (inactive). For `Nc1cc(C(F)(F)F)ccc1N1CCOCC1`, the Kd was > 4 mM (inactive). In the case of `O=c1cc(-c2ccc(O)cc2)oc2cc(O)cc(O)c12`, the Kd is reported as > 4 mM (inactive). In the case of `NC(=O)c1ccsc1NC(=O)c1ccco1`, the Kd is reported as > 4 mM (inactive). `CC(=O)NC(=S)Nc1ccccc1N1CCOCC1` was tested, and the Kd was > 4 mM (inactive). In the case of `NCCCCN=C(N)N`, the Kd is reported as > 4 mM (inactive). For `C[C@@H](N)[C@@H](O)c1ccccc1`, the Kd was > 4 mM (inactive). With `CC[C@@]1(O)C[C@H](O)c2c(cc3c(c2O)C(=O)c2c(O)ccc(O)c2C3=O)[C@H]1C(=O)OC` the Kd was > 4 mM (inactive). For `O=C1CNC(=O)N1c1cccc(Cl)c1`, the Kd was > 4 mM (inactive). For `O=C(O)c1cc(O)c2c(c1)C(=O)c1cc(O)cc(O)c1C2=O`, the Kd was > 4 mM (inactive). In the case of `S=C(Nc1ccc2nccnc2c1)N1CCOCC1`, the Kd is reported as > 4 mM (inactive). `CS(C)=C1C(=O)NC(=O)N(c2ccccc2)C1=O` was tested, and the Kd was > 4 mM (inactive). For `CC(=O)Nc1c(Cl)cnn(-c2ccccc2)c1=O`, the Kd was > 4 mM (inactive). `O=C(Nc1cnccn1)c1cccnc1` was tested, and the Kd was > 4 mM (inactive). `COc1ccc(S(=O)(=O)NCCO)cc1` was tested, and the Kd was > 4 mM (inactive). In the case of `Cc1nn2c(nc1=O)SCC2(O)c1ccccc1` (centres undefined), the Kd is reported as > 4 mM (inactive). With `COC(=O)C1=C(C)N(Cc2ccco2)C(=O)C1` the Kd was > 4 mM (inactive). For `CCOC(=O)c1csc(C)n1`, the Kd was > 4 mM (inactive). With `NCCNC(=S)Nc1ccccc1` the Kd was > 4 mM (inactive). `Cc1cc[n+](-c2nc([O-])sc2C=O)cc1` was tested, and the Kd was > 4 mM (inactive). With `Cc1ccc2cc(CO)ccc2n1` the Kd was > 4 mM (inactive). In the case of `Cc1ccc(C(=O)CS(C)(=O)=O)cc1`, the Kd is reported as > 4 mM (inactive). With `NC(=S)NC(=O)CN1C(=O)c2ccccc2C1=O` the Kd was > 4 mM (inactive). In the case of `O=C1CNc2cc(C(=O)O)ccc2N1`, the Kd is reported as > 4 mM (inactive). `Cc1nc2ccccc2c(=O)n1CCCO` was tested, and the Kd was > 4 mM (inactive). In the case of `Cn1c(-c2ccccc2F)n[nH]c1=S`, the Kd is reported as > 4 mM (inactive). In the case of `C=CCCCCCCCCCCCc1ccco1`, the Kd is reported as > 4 mM (inactive). With `OC1CCCN(Cc2ccccc2)C1` (centres undefined) the Kd was > 4 mM (inactive). For `CC(=O)OC[C@H]1O[C@@H](Oc2cc(OC(C)=O)c3c(=O)cc(-c4ccc(OC(C)=O)cc4)oc3c2)[C@H](OC(C)=O)[C@@H](OC(C)=O)[C@@H]1OC(C)=O`, the Kd was > 4 mM (inactive). For `Cc1ccc(=O)[nH]c1`, the Kd was > 4 mM (inactive). With `O=c1[nH]c(=O)n(-c2ccc(F)cc2)c(O)c1/C=C1/C=CC=N1` the Kd was > 4 mM (inactive). In the case of `COc1c(-c2coc3cc4c(cc3c2=O)CC(OC(C)=O)C(C)(C)O4)ccc2c1C=CC(C)(C)O2` (centres undefined), the Kd is reported as > 4 mM (inactive). With `Cc1cc(Cl)ccc1OC(C)C(=O)N1CCOCC1` (centres undefined) the Kd was “inactive”. `CC(=O)NC(O)C(=O)c1ccccc1` (centres undefined) was tested, and the Kd was > 4 mM (inactive). `CN(C)N1C(=O)C2CCCCC2C1=O` (centres undefined) was tested, and the Kd was > 4 mM (inactive). With `CCNC(=O)CC1Nc2ccccc2NC1=O` (centres undefined) the Kd was > 4 mM (inactive). With `CNC(=O)c1ccc([N+](=O)[O-])cc1Cl` the Kd was > 4 mM (inactive). `O=c1c(-c2ccc(O)cc2)coc2cc(O)ccc12` was tested, and the Kd was > 4 mM (inactive). `OCc1ccc2nonc2c1` was tested, and the Kd was > 4 mM (inactive). With `CC(C)CCCC1(C)C=Cc2c(O)c3c(c(CCC(C)C)c2O1)OC12C(CC4CC1C(C)(C)OC2(CCC(C)C(=O)O)C4O)C3=O` (centres undefined) the Kd was > 4 mM (inactive). In the case of `Oc1cccc2[nH]ccc12`, the Kd is reported as > 4 mM (inactive). For `CC(=O)Nc1cccc(-c2nnc3n2CC(C)S3)c1` (centres undefined), the Kd was > 4 mM (inactive). With `COc1c2c(cc3c1OCO3)C13C=C[C@H](OC)CC1N(C2)CC3O` (some centres undefined) the Kd was > 4 mM (inactive). With `Nc1ccc(Cl)nn1` the Kd was > 4 mM (inactive). `O=C(NC(O)C(=O)c1ccccc1)c1ccco1` (centres undefined) was tested, and the Kd was > 4 mM (inactive). With `CC(C)c1ccc(SCC(=O)N2CCOCC2C(=O)O)cc1` (centres undefined) the Kd was 0.426 mM. `NS(=O)(=O)c1ccc(N=Cc2cccs2)cc1` was tested, and the Kd was > 4 mM (inactive). With `CCOC(=O)c1c(C)cc(O)cc1O` the Kd was > 4 mM (inactive). `Cc1n[nH]c(=S)n(/N=C/c2ccccc2)c1=O` was tested, and the Kd was > 4 mM (inactive). In the case of `c1n[nH]cc1-c1cn[nH]c1`, the Kd is reported as > 4 mM (inactive). For `O=C(c1ccncc1)N1CCN(C(=O)c2ccncc2)CC1`, the Kd was > 4 mM (inactive). For `Cc1cc(O)cc(=O)o1`, the Kd was > 4 mM (inactive). With `Cc1cc(C)n2nc(C(=O)Nc3cccnc3)nc2n1` the Kd was > 4 mM (inactive). In the case of `Oc1ccc(C(=S)N2CCCCC2)cc1Cl`, the Kd is reported as > 4 mM (inactive). `CC(C)[C@@H]1CC[C@@H](C)CC1=O` was tested, and the Kd was > 4 mM (inactive). With `O=C(O)c1cccc2c1OCC2` the Kd was > 4 mM (inactive). For `CCOC(=O)c1nc2ccccc2c(=O)n1N`, the Kd was > 4 mM (inactive). For `CC(=O)Nc1ccc(S(=O)(=O)NC(N)=O)cc1`, the Kd was > 4 mM (inactive). With `Cn1c(CN2CC(c3ccccc3)CC2=O)n[nH]c1=S` (centres undefined) the Kd was > 4 mM (inactive). For `NC(=O)CC1NC(=O)c2ccccc21` (centres undefined), the Kd was > 4 mM (inactive). For `NC(=S)N1CCC(c2ccccc2)=N1`, the Kd was > 4 mM (inactive). In the case of `CC1CN(C(=O)CSc2ccccc2)CC(C)O1` (centres undefined), the Kd is reported as “inactive”. In the case of `CCOC(=O)CC1NCCNC1=O` (centres undefined), the Kd is reported as > 4 mM (inactive). `O=C(c1ccncc1)N1CCN(C(=O)c2ccco2)CC1` was tested, and the Kd was > 4 mM (inactive). For `COc1ccc2cc1Oc1ccc(cc1)C[C@H]1c3cc(c(OC)cc3CCN1C)Oc1c(OC)c(OC)cc3c1[C@H](C2)N(C)CC3`, the Kd was > 4 mM (inactive). `Cc1cc(NC(=O)c2ccccc2C(=O)O)no1` was tested, and the Kd was > 4 mM (inactive). `CC(N)C(=O)c1ccco1` (centres undefined) was tested, and the Kd was > 4 mM (inactive). In the case of `CCc1cc2c(SCC(=O)O)ncnc2s1`, the Kd is reported as > 4 mM (inactive). `CC1(C)C(=O)N(O)C(C)(C)C(=O)N1O` was tested, and the Kd was > 4 mM (inactive). For `CC(=O)Nc1ccc(NC(=O)/C=C\C(=O)O)cc1`, the Kd was > 4 mM (inactive). `COc1c(C(=O)N2CCCC2)ccc2ccccc12` was tested, and the Kd was > 4 mM (inactive). For `CN1CC(=O)Nc2ccc([N+](=O)[O-])cc2C1=O`, the Kd was > 4 mM (inactive). For `CCOC(=O)c1ccc(F)c(F)c1`, the Kd was > 4 mM (inactive). `CSc1ncc(CO)n1Cc1ccccc1` was tested, and the Kd was > 4 mM (inactive). For `Cc1cc(C)n(-c2nc(C)nc(N)n2)n1`, the Kd was > 4 mM (inactive). `O=C(O)C1CCN(c2ccc(C(F)(F)F)cn2)CC1` was tested, and the Kd was > 4 mM (inactive). `O=c1[nH]c(=S)c2c(n1-c1ccccc1)CCC2` was tested, and the Kd was > 4 mM (inactive). With `CC(NC(=O)c1cccnc1)c1ccc2c(c1)OCO2` (centres undefined) the Kd was > 4 mM (inactive). For `COc1cc(OC)c2c(c1Cl)OC1(C2=O)C(O)=CC(=O)CC1C` (centres undefined), the Kd was > 4 mM (inactive). In the case of `CC1(C)NCCN2C(=O)CSC21` (centres undefined), the Kd is reported as > 4 mM (inactive). In the case of `NC(=O)c1cn(-c2ccccc2)nc1-c1cccnc1`, the Kd is reported as > 4 mM (inactive). `CCOC(=O)c1c(C)[nH]c2ccc(O)cc12` was tested, and the Kd was > 4 mM (inactive). `CC12CC[C@H](CC1=O)C2(C)C` was tested, and the Kd was > 4 mM (inactive). `CN(C)c1n[nH]c(=O)[nH]c1=O` was tested, and the Kd was > 4 mM (inactive). In the case of `Nc1ccc2sccc2c1`, the Kd is reported as > 4 mM (inactive). For `NS(=O)(=O)c1ccc(F)cc1`, the Kd was > 4 mM (inactive). With `CC1=NNC(=O)C1CCc1ccncc1` (centres undefined) the Kd was > 4 mM (inactive).
